Assays:
Type in all cases: binding, SARS-CoV-2
Omicron (BA.1) S protein = Omicron (BA.1) S protein (Severe acute respiratory syndrome coronavirus 2, UniProt P0DTC2, A67V/D614G/D796Y/DEL143-145/DEL211-211/DEL69-70/E484A/G142D/G339D/G446S/G496S/H655Y/INS214EPE/K417N/L212I/L981F/N440K/N501Y/N679K/N764K/N856K/N969K/P681H/Q493K/Q498R/Q954H/S371L/S373P/S375F/S477N/T478K/T547K/T95I/Y505H)
BA.2 S protein = BA.2 S protein (Severe acute respiratory syndrome coronavirus 2, UniProt P0DTC2, A27S/D405N/D614G/D796Y/DEL24-26/E484A/G142D/G339D/H655Y/K417N/N440K/N501Y/N679K/N764K/N969K/P681H/Q493R/Q498R/Q954H/R408S/S371F/S373P/S375F/S477N/T19I/T376A/T478K/V213G/Y505H)
BA.4/5 S protein = BA.4/5 S protein (Severe acute respiratory syndrome coronavirus 2, UniProt P0DTC2, A27S/D405N/D614G/D796Y/DEL24-26/DEL69-70/E484A/F486V/G142D/G339D/H655Y/K417N/L452R/N440K/N501Y/N679K/N764K/N969K/P681H/Q498R/Q954H/R408S/S371F/S373P/S375F/S477N/T19I/T376A/T478K/V213G/Y505H)
[1] = system: RBM mutant RBD protein derived from BA.2
[2] = molecular target: RBM mutant RBD protein derived from BA.4/5 (Severe acute respiratory syndrome coronavirus 2, UniProt P0DTC2, E484A/F486V/L452R/N440K/N501Y/Q498R/S477N/T478K/Y505H)
Omicron RBD = Omicron RBD (Severe acute respiratory syndrome coronavirus 2, UniProt P0DTC2, E484A/G339D/G446S/G496S/K417N/N440K/N501Y/Q493K/Q498R/S371L/S373P/S375F/S477N/T478K/Y505H)

| Compound | IC50 (Omicron (BA.1) S protein) | IC50 (BA.2 S protein) | IC50 (BA.4/5 S protein) | sensitivity to TCEP compared to WT protein [1] | sensitivity to TCEP compared to WT protein [2] | inhibition of activity of Omicron RBD (Omicron RBD) |
| --- | --- | --- | --- | --- | --- | --- |
| N[C@@H](CCC(=O)N[C@@H](CS)C(=O)NCC(=O)O)C(=O)O [GSH, reduced glutathione] | < 10 mM | < 10 mM | < 10 mM |  |  |  |
| O=C(O)CCP(CCC(=O)O)CCC(=O)O [TCEP, tris-(2-carboxyethyl)phosphine] |  |  |  | enhanced sensitivities | enhanced sensitivities | > 80% |

Reference: article PMC10125213 (Journal of Molecular Biology, 2023)
